Source: ChEMBL document CHEMBL4138146, “A Schmidt rearrangement-mediated synthesis of novel tetrahydro-benzo[1,4]diazepin-5-ones as potential anticancer and antiprotozoal agents” (Eur J Med Chem, 2017)

Experiments:
Type in all cases: functional
MDA-MB-231 = assay: Growth inhibition of human MDA-MB-231 cells assessed as cell growth at 10 uM incubated for 48 hrs by sulforhodamine B assay relative to control; conditions: MDA-MB-231, 48 h, read-out: Activity
COLO 205 = assay: Growth inhibition of human COLO205 cells assessed as cell growth at 10 uM incubated for 48 hrs by sulforhodamine B assay relative to control; conditions: COLO 205, 48 h, read-out: Activity
RXF 393 = assay: Growth inhibition of human RXF393 cells assessed as cell growth at 10 uM incubated for 48 hrs by sulforhodamine B assay relative to control; conditions: RXF 393, 48 h, read-out: Activity
ACHN = assay: Growth inhibition of human ACHN cells assessed as cell growth at 10 uM incubated for 48 hrs by sulforhodamine B assay relative to control; conditions: read-out: Activity
BT-549 = assay: Growth inhibition of human BT549 cells assessed as cell growth at 10 uM incubated for 48 hrs by sulforhodamine B assay relative to control; conditions: BT-549, 48 h, read-out: Activity
UACC-62 = assay: Growth inhibition of human UACC62 cells assessed as cell growth at 10 uM incubated for 48 hrs by sulforhodamine B assay relative to control; conditions: UACC-62, 48 h, read-out: Activity
M14 = assay: Growth inhibition of human M14 cells assessed as cell growth at 10 uM incubated for 48 hrs by sulforhodamine B assay relative to control; conditions: M14, 48 h, read-out: Activity
NCI-H522 = assay: Growth inhibition of human NCI-H522 cells assessed as cell growth at 10 uM incubated for 48 hrs by sulforhodamine B assay relative to control; conditions: NCI-H522, 48 h, read-out: Activity
SF-268 = assay: Growth inhibition of human SF268 cells assessed as cell growth at 10 uM incubated for 48 hrs by sulforhodamine B assay relative to control; conditions: SF-268, 48 h, read-out: Activity
HCC 2998 = assay: Growth inhibition of human HCC2998 cells assessed as cell growth at 10 uM incubated for 48 hrs by sulforhodamine B assay relative to control; conditions: HCC 2998, 48 h, read-out: Activity
A498 = assay: Growth inhibition of human A498 cells assessed as cell growth at 10 uM incubated for 48 hrs by sulforhodamine B assay relative to control; conditions: A498, 48 h, read-out: Activity
HOP-92 = assay: Growth inhibition of human HOP92 cells assessed as cell growth at 10 uM incubated for 48 hrs by sulforhodamine B assay relative to control; conditions: HOP-92, 48 h, read-out: Activity
Malme-3M = assay: Growth inhibition of human MALME-3M cells assessed as cell growth at 10 uM incubated for 48 hrs by sulforhodamine B assay relative to control; conditions: read-out: Activity
UO-31 = assay: Growth inhibition of human UO31 cells assessed as cell growth at 10 uM incubated for 48 hrs by sulforhodamine B assay relative to control; conditions: UO-31, 48 h, read-out: Activity
HCT-116 = assay: Growth inhibition of human HCT116 cells assessed as cell growth at 10 uM incubated for 48 hrs by sulforhodamine B assay relative to control; conditions: HCT-116, 48 h, read-out: Activity
T47D = assay: Growth inhibition of human T47D cells assessed as cell growth at 10 uM incubated for 48 hrs by sulforhodamine B assay relative to control; conditions: read-out: Activity
SK-MEL-5 = assay: Growth inhibition of human SK-MEL-5 cells assessed as cell growth at 10 uM incubated for 48 hrs by sulforhodamine B assay relative to control; conditions: SK-MEL-5, 48 h, read-out: Activity
HT-29 = assay: Growth inhibition of human HT-29 cells assessed as cell growth at 10 uM incubated for 48 hrs by sulforhodamine B assay relative to control; conditions: HT-29, 48 h, read-out: Activity
SF-539 = assay: Growth inhibition of human SF539 cells assessed as cell growth at 10 uM incubated for 48 hrs by sulforhodamine B assay relative to control; conditions: SF-539, 48 h, read-out: Activity
MDA-MB-468 = assay: Growth inhibition of human MDA-MB-468 cells assessed as cell growth at 10 uM incubated for 48 hrs by sulforhodamine B assay relative to control; conditions: MDA-MB-468, 48 h, read-out: Activity
NCI-H226 = assay: Growth inhibition of human NCI-H226 cells assessed as cell growth at 10 uM incubated for 48 hrs by sulforhodamine B assay relative to control; conditions: NCI-H226, 48 h, read-out: Activity
OVCAR-4 = assay: Growth inhibition of human OVCAR4 cells assessed as cell growth at 10 uM incubated for 48 hrs by sulforhodamine B assay relative to control; conditions: OVCAR-4, 48 h, read-out: Activity
HOP-62 = assay: Growth inhibition of human HOP62 cells assessed as cell growth at 10 uM incubated for 48 hrs by sulforhodamine B assay relative to control; conditions: HOP-62, 48 h, read-out: Activity
MDA-MB-435 = assay: Growth inhibition of human MDA-MB-435 cells assessed as cell growth at 10 uM incubated for 48 hrs by sulforhodamine B assay relative to control; conditions: MDA-MB-435, 48 h, read-out: Activity
SNB-75 = assay: Growth inhibition of human SNB75 cells assessed as cell growth at 10 uM incubated for 48 hrs by sulforhodamine B assay relative to control; conditions: SNB-75, 48 h, read-out: Activity
OVCAR-5 = assay: Growth inhibition of human OVCAR5 cells assessed as cell growth at 10 uM incubated for 48 hrs by sulforhodamine B assay relative to control; conditions: OVCAR-5, 48 h, read-out: Activity
CCRF-CEM = assay: Growth inhibition of human CCRF-CEM cells assessed as cell growth at 10 uM incubated for 48 hrs by sulforhodamine B assay relative to control; conditions: read-out: Activity
NCI-H23 = assay: Growth inhibition of human NCI-H23 cells assessed as cell growth at 10 uM incubated for 48 hrs by sulforhodamine B assay relative to control; conditions: NCI-H23, 48 h, read-out: Activity
OVCAR-8 = assay: Growth inhibition of human OVCAR8 cells assessed as cell growth at 10 uM incubated for 48 hrs by sulforhodamine B assay relative to control; conditions: OVCAR-8, 48 h, read-out: Activity
NCI/ADR-RES = assay: Growth inhibition of human NCI/ADR-RES cells assessed as cell growth at 10 uM incubated for 48 hrs by sulforhodamine B assay relative to control; conditions: read-out: Activity
Hs-578T = assay: Growth inhibition of human Hs 578T cells assessed as cell growth at 10 uM incubated for 48 hrs by sulforhodamine B assay relative to control; conditions: read-out: Activity
DU-145 = assay: Growth inhibition of human DU145 cells assessed as cell growth at 10 uM incubated for 48 hrs by sulforhodamine B assay relative to control; conditions: DU-145, 48 h, read-out: Activity
PC-3 = assay: Growth inhibition of human PC3 cells assessed as cell growth at 10 uM incubated for 48 hrs by sulforhodamine B assay relative to control; conditions: PC-3, 48 h, read-out: Activity

Row | SMILES | growth at 10 µM (MDA-MB-231) | growth at 10 µM (COLO 205) | growth at 10 µM (RXF 393) | growth at 10 µM (ACHN) | growth at 10 µM (BT-549) | growth at 10 µM (UACC-62) | growth at 10 µM (M14) | growth at 10 µM (NCI-H522) | growth at 10 µM (SF-268) | growth at 10 µM (HCC 2998) | growth at 10 µM (A498) | growth at 10 µM (HOP-92) | growth at 10 µM (Malme-3M) | growth at 10 µM (UO-31) | growth at 10 µM (HCT-116) | growth at 10 µM (T47D) | growth at 10 µM (SK-MEL-5) | growth at 10 µM (HT-29) | growth at 10 µM (SF-539) | growth at 10 µM (MDA-MB-468) | also measured
1 | O=C1NCC(c2cc3ccc4ccccc4c3[nH]c2=O)Nc2ccccc21 (configuration not stated) | 65.3% | 108% | 101% | 109% | 93.1% | 95.2% | 102% | 90.4% | 77.8% | 97.8% | 88.6% | 99.5% | 96.9% | 105% | 44.1% | 85.7% | 99.2% | 95% | 99.8% | 116% | growth at 10 µM (NCI-H226): 103%; growth at 10 µM (OVCAR-4): 106%; growth at 10 µM (HOP-62): 93.1%; growth at 10 µM (MDA-MB-435): 106%; growth at 10 µM (SNB-75): 107%; growth at 10 µM (OVCAR-5): 101%; growth at 10 µM (CCRF-CEM): 81.5%; growth at 10 µM (NCI-H23): 102%; growth at 10 µM (OVCAR-8): 78%; growth at 10 µM (NCI/ADR-RES): 99%; growth at 10 µM (Hs-578T): 93.9%; growth at 10 µM (DU-145): 77.3%; growth at 10 µM (PC-3): 88.8%
2 | Cc1ccc2[nH]c(=O)c(C3CNC(=O)c4ccccc4N3)cc2c1 (configuration not stated) | 114% | 107% | 109% | 103% | 99.4% | 98.4% | 103% | 93.6% | 99.5% | 107% | 93% | 110% | 109% | 84.3% | 106% | 116% | 98.6% | 104% | 96.5% | 110% | growth at 10 µM (NCI-H226): 109%; growth at 10 µM (OVCAR-4): 108%; growth at 10 µM (HOP-62): 97.1%; growth at 10 µM (MDA-MB-435): 108%; growth at 10 µM (SNB-75): 97.4%; growth at 10 µM (OVCAR-5): 92.9%; growth at 10 µM (CCRF-CEM): 97.4%; growth at 10 µM (NCI-H23): 97.1%; growth at 10 µM (OVCAR-8): 113%; growth at 10 µM (NCI/ADR-RES): 108%; growth at 10 µM (Hs-578T): 105%; growth at 10 µM (DU-145): 106%; growth at 10 µM (PC-3): 98.5%
3 | CCCCn1c(=O)c(C2CNC(=O)c3ccccc3N2)cc2ccccc21 (configuration not stated) | 77.5% | 111% | 111% | 98.2% | 97.8% | 88.4% | 107% | 92.5% | 98.9% | 108% | 88.7% | 95.2% | 107% | 93.1% | 94.9% | 93.7% | 102% | 103% | 89.9% | 107% | growth at 10 µM (NCI-H226): 111%; growth at 10 µM (OVCAR-4): 103%; growth at 10 µM (HOP-62): 91.8%; growth at 10 µM (MDA-MB-435): 105%; growth at 10 µM (SNB-75): 84%; growth at 10 µM (OVCAR-5): 96.3%; growth at 10 µM (CCRF-CEM): 110%; growth at 10 µM (NCI-H23): 95%; growth at 10 µM (OVCAR-8): 114%; growth at 10 µM (NCI/ADR-RES): 100%; growth at 10 µM (Hs-578T): 94.6%; growth at 10 µM (DU-145): 108%; growth at 10 µM (PC-3): 106%
4 | O=C1NCC(c2cc3ccccc3[nH]c2=O)Nc2ccccc21 (configuration not stated) | 97.9% | 107% | 90.7% | 99.7% | 96.3% | 98.3% | 101% | 88.6% | 99.9% | 104% | 104% | 104% | 96.8% | 76.8% | 92.6% | 91% | 97.2% | 98.3% | 96.5% | 97.5% | growth at 10 µM (NCI-H226): 98.4%; growth at 10 µM (OVCAR-4): 104%; growth at 10 µM (HOP-62): 90.6%; growth at 10 µM (MDA-MB-435): 107%; growth at 10 µM (SNB-75): 99.6%; growth at 10 µM (OVCAR-5): 91.2%; growth at 10 µM (CCRF-CEM): 110%; growth at 10 µM (NCI-H23): 97.4%; growth at 10 µM (OVCAR-8): 103%; growth at 10 µM (NCI/ADR-RES): 111%; growth at 10 µM (Hs-578T): 99.4%; growth at 10 µM (DU-145): 111%; growth at 10 µM (PC-3): 93.2%
